# Experimental data as given in ChEMBL document CHEMBL5579881, “Synthesis of the Corrected Structure Assigned to Clonorosin B, an Alkaloid Obtained from the Soil-derived Fungus Clonostachys rosea YRS-06” (J Nat Prod, 2024).
# Active and inactive are the calls of the source. No cut-off for these calls is given here.
# Key:
# Staphylococcus aureus [1] = test: Antibacterial activity against methicillin-resistant Staphylococcus aureus AUS-RBWH-MRSA-02 assessed as inhibition of microbial growth at 0.01 to 30 uM after 24 hrs by spectrophotometric analysis; format: functional, organism-based; conditions: dose 0.01-30 µM
# SW-620 = test: Cytotoxicity against human SW620 cells assessed as growth inhibition at 0.01 to 30 uM incubated for 48 hrs by MTT assay; format: functional, cell-based; conditions: dose 0.01-30 µM
# Staphylococcus aureus [2] = test: Antibacterial activity against Staphylococcus aureus ATCC 25923 assessed as inhibition of microbial growth at 0.01 to 30 uM after 24 hrs by spectrophotometric analysis; format: functional, organism-based; conditions: dose 0.01-30 µM
# Candida albicans = test: Antifungal activity against Candida albicans ATCC 10231 assessed as inhibition of fungal growth at 0.01 to 30 uM after 24 hrs by spectrophotometric analysis; format: functional, organism-based; conditions: dose 0.01-30 µM
# Escherichia coli = test: Antibacterial activity against Escherichia coli ATCC 11775 assessed as inhibition of microbial growth at 0.01 to 30 uM after 24 hrs by spectrophotometric analysis; format: functional, organism-based; conditions: dose 0.01-30 µM
# [3] = biological target: ATP-dependent translocase ABCB1 (Homo sapiens, UniProt P08183); test: Inhibition of P-gp in human SW620/AD300 cells assessed as reduction in doxorubicin IC50 at 5 uM incubated for 48 hrs by MTT assat; format: functional, cell-based; conditions: sw620/ad300, 48 h
# Sequence of ATP-dependent translocase ABCB1 (P08183 whole entry): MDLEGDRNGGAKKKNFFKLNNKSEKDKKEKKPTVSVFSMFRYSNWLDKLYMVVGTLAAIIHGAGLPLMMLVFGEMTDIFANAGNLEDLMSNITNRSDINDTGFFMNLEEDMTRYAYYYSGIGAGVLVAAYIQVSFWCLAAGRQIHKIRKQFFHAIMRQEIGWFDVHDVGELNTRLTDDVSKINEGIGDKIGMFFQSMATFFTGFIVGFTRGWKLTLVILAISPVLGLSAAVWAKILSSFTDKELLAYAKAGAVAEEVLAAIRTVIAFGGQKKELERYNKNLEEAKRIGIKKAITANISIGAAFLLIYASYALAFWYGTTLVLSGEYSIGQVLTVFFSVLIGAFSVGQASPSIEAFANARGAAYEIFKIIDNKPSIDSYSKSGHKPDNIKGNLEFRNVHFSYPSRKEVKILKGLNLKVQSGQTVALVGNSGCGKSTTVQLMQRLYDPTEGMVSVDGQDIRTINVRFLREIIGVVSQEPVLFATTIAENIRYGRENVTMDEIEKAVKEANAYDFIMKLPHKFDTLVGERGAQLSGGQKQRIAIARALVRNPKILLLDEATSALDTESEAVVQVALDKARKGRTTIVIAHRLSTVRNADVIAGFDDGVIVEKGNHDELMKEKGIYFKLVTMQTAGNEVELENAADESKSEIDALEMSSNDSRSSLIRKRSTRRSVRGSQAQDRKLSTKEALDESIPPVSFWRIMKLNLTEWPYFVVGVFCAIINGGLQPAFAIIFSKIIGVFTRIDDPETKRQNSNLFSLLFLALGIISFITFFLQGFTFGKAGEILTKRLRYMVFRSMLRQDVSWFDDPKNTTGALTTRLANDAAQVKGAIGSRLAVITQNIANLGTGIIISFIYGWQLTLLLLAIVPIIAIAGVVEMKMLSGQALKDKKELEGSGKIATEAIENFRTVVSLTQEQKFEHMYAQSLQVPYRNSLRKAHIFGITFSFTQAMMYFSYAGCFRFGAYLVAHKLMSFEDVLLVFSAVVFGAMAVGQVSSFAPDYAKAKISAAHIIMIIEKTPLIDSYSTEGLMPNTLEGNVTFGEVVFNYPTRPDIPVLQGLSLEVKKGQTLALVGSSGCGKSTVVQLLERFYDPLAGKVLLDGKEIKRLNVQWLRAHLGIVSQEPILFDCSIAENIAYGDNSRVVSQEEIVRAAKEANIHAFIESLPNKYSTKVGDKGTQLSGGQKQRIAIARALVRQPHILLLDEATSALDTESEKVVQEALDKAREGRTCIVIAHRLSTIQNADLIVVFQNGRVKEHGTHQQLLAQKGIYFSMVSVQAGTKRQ
Compound,inhibition (Staphylococcus aureus [1]),growth inhibition (GI) (SW-620),inhibition (Staphylococcus aureus [2]),inhibition (Candida albicans),inhibition (Escherichia coli),inhibition (INH) [3]
O=C(OCc1cccc2c1OCO2)c1ccc[nH]1,inactive,inactive,inactive,inactive,inactive,Not Active
O=C1c2ccc(O)c(O)c2Cn2cccc21,inactive,inactive,inactive,inactive,inactive,Not Active
COc1ccc2c(c1OC)Cn1cccc1C2=O,inactive,inactive,inactive,inactive,inactive,Not Active
COc1cccc(Cn2cccc2C(=O)O)c1OC,inactive,inactive,inactive,inactive,inactive,Not Active
O=C1c2ccc3c(c2Cn2cccc21)OCO3,inactive,inactive,inactive,inactive,inactive,Not Active
COC(=O)c1cccn1Cc1cccc2c1OCO2,inactive,inactive,inactive,inactive,inactive,Not Active
COC(=O)c1cccn1Cc1cccc(OC)c1OC,inactive,inactive,inactive,inactive,inactive,Not Active
O=C(O)c1cccn1Cc1cccc2c1OCO2,inactive,inactive,inactive,inactive,inactive,Not Active
